Columns and labels:
SD rats = conditions: 2000 mg/kg single oral dose in 0.5% HPMC, five male and five female SD rats
Description: 2000 mg/kg of Compound (1) was suspended in 0.5% HPMC solution, and orally administered at a single dose of 10 mL/kg to five male and five female SD rats (6-week-old).

[1] = system: DSS-induced IBD model animals; assay: Actions of improving the clinical conditions in DSS-induced IBD model; format: in vivo, mice; conditions: for Change in length of the large intestine (Ratio to the no treatment group, %): C57BL/6N mice, 3% DSS Day 0-4, drug Day 4-10, determined Day 11, control 73.4
Description: This test was performed according to the method described in PEDIATRIC RESEARCH, Vol. 53, No. 1, 143 to 147, 2003. In particular, mice (6-week-old, C57BL/6N Jcl, CLEA Japan, Inc.) were divided into groups of eight mice each such that average body weight was the same in each group on Day 0. […] Determination was made on the next day of the last administration of each drug (Day 11). As the evaluation index, the length of the large intestine and the rate of body weight change from the first day of the test (Day 0) to the last day of the test (Day 11) were measured.

[2] = system: intestinal epithelial cells; assay: Inhibition of apoptosis of large intestinal epithelial cells in TNBS-induced colitis; format: in vivo, mouse; conditions: TNBS-induced colitis large intestine, Giemsa staining, 1000 cells per segment; TNBS alone 40.0±3.0%
Description: Large intestine affected by TNBS-induced colitis was subjected to Giemsa staining to stain the nucleus, and apoptosis of the intestinal epithelial cells was investigated (FIG. 3). Cells showing cell shrinkage or nucleus fragmentation were taken as apoptoic cells. 1000 cells in each segment were observed under the microscope, and the ratio of apoptotic cells (the apoptosis induction rate) was calculated (FIG. 4).

[3] = Compound 100, prednisolone 5, 5-ASA 100 mg/kg/day

Compound | death (SD rats) | Change in length of the large intestine (Ratio to the no treatment group, %) [1, 3] [%] | weight loss (rate of body weight change from first day to determination day) ([1]; Day 0 to Day 11, printed as loss, prednisolone 5, 5-ASA 100 mg/kg/day, control loss 1.7±1.8) [%] | Rate of body weight change (%, Mean ± SE) ([1]; Day 0 to Day 11, Compound 100, prednisolone 5, 5-ASA 100 mg/kg/day, control −1.7 ± 1.8, no treatment 3.7 ± 1.5) [%] | ratio of apoptotic cells (apoptosis induction rate) [2] [%]
Cl.N=C1CCCN1Cc1[nH]c(=O)[nH]c(=O)c1Cl [Compound (1), 5-chloro-6-(2-iminopyrrolidin-1-yl)methyl-2,4(1H,3H)-pyrimidinedione hydrochloride] | no case of death | 88.6 | – | – | –
C[C@]12C=CC(=O)C=C1CC[C@@H]1[C@@H]2[C@@H](O)C[C@@]2(C)[C@H]1CC[C@]2(O)C(=O)CO [Prednisolone, prednisolone] | – | 93.2 | – | – | –
Nc1ccc(O)c(C(=O)O)c1 [Compound 5-ASA, 5-aminosalycilic acid] | – | 80.3 | 5.0±0.3 | −5.0 ± 0.3 | –
N=C1CCCN1Cc1[nH]c(=O)[nH]c(=O)c1Cl [Compound (I), 5-chloro-6-(2-iminopyrrolidin-1-yl)methyl-2,4(1H,3H)-pyrimidinedione] | – | 88.6 | – | – | 26.0±5.0

Source: US20090209565A1, “THERAPEUTIC AGENT FOR INFLAMMATORY BOWEL DISEASE” (priority 2006, published 2009)
